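Method: 48-hour compound exposure of cells in 96-well plates, five concentrations, linear interpolation of endpoints. TGI denotes the concentration required for complete inhibition of growth.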
How the values were obtained:
Assay in all cases: NCI tumour cell line growth inhibition, 48 h
[1] = test system: NCI-H23 lung
[2] = test system: HT29 colon
[3] = test system: NCI-H522 lung
[4] = test system: SW-620 colon
[5] = test system: SK-MEL-2 melanoma
[6] = test system: OVCAR-8 ovarian
[7] = test system: SN12C renal
[8] = test system: 786-0 renal
[9] = test system: SF-539 CNS
[10] = test system: UACC-257 melanoma
[11] = test system: NCI-H460 lung
[12] = test system: DMS 273 small cell lung
[13] = test system: OVCAR-5 ovarian
[14] = test system: DLD-1 colon
[15] = test system: SNB-78 CNS
[16] = test system: U251 CNS
[17] = test system: HOP-18 NSCLC
[18] = test system: SF-295 CNS
[19] = test system: HOP-92 NSCLC
[20] = test system: SNB-75 CNS
[21] = test system: NCI-H226 lung
[22] = test system: SF-268 CNS
[23] = test system: SK-MEL-28 melanoma
[24] = test system: UO-31 renal
[25] = test system: COLO 205 colon
[26] = test system: HCC-2998 colon
[27] = test system: ACHN renal
[28] = test system: KM20L2 colon
[29] = test system: TK-10 renal
[30] = test system: SK-MEL-5 melanoma
[31] = test system: A549 NSCLC
[32] = test system: SR leukemia
[33] = test system: KM12 colon
[34] = test system: LOX IMVI melanoma
[35] = test system: XF 498 CNS
[36] = test system: EKVX NSCLC
[37] = test system: HOP-62 NSCLC
[38] = test system: RXF 393 renal
[39] = test system: LXFL 529 NSCLC
[40] = test system: MALME-3M melanoma
[41] = test system: M19-MEL melanoma
[42] = test system: HL-60(TB) leukemia
[43] = test system: SNB-19 CNS
[44] = test system: DMS 114 small cell lung
[45] = test system: CAKI-1 renal
[46] = test system: M14 melanoma
[47] = test system: HCT-15 colon
[48] = test system: MOLT-4 leukemia
[49] = test system: SK-OV-3 ovarian
[50] = test system: OVCAR-4 ovarian
[51] = test system: A498 renal
[52] = test system: IGROV1 ovarian
[53] = test system: OVCAR-3 ovarian
[54] = test system: CCRF-CEM leukemia
[55] = test system: K-562 leukemia
[56] = test system: RPMI-8226 leukemia
[57] = test system: HCT-116 colon
[58] = test system: UACC-62 melanoma

With `CCC(C)CN1C(=O)NC(C)(Cc2ccccc2)C1=O` (stereo not drawn) the TGI [1] was > 100 µM, the TGI [2] was > 100 µM and the TGI [3] was > 100 µM. For the same molecule, the TGI [4] was > 100 µM, the TGI [5] was > 100 µM and the TGI [6] was > 100 µM. For the same molecule, the TGI [7] was > 100 µM, the TGI [8] was > 100 µM and the TGI [9] was > 100 µM. The TGI [10] was > 100 µM, the TGI [11] was > 100 µM and the TGI [12] was > 100 µM. For the same molecule, the TGI [13] was > 100 µM, the TGI [14] was > 100 µM and the TGI [15] was > 100 µM. The TGI [16] was > 100 µM, the TGI [17] was > 100 µM and the TGI [18] was > 100 µM. For the same molecule, the TGI [19] was > 100 µM, the TGI [20] was > 100 µM and the TGI [21] was > 100 µM. For the same molecule, the TGI [22] was > 100 µM, the TGI [23] was > 100 µM and the TGI [24] was > 100 µM. The TGI [25] was > 100 µM, the TGI [26] was > 100 µM and the TGI [27] was > 100 µM. For the same molecule, the TGI [28] was > 100 µM, the TGI [29] was > 100 µM and the TGI [30] was > 100 µM. For the same molecule, the TGI [31] was > 100 µM, the TGI [32] was > 100 µM and the TGI [33] was > 100 µM. The TGI [34] was > 100 µM, the TGI [35] was > 100 µM and the TGI [36] was > 100 µM. For the same molecule, the TGI [37] was > 100 µM, the TGI [38] was > 100 µM and the TGI [39] was > 100 µM. The TGI [40] was > 100 µM, the TGI [41] was > 100 µM and the TGI [42] was > 100 µM. For the same molecule, the TGI [43] was > 100 µM, the TGI [44] was > 100 µM and the TGI [45] was > 100 µM. The TGI [46] was > 100 µM.

`CC12CC3C(CC1SCC(=O)O2)C3(C)C` (stereo not drawn) was tested, and the TGI [1] was > 100 µM, the TGI [2] was > 100 µM and the TGI [47] was > 100 µM. The TGI [48] was > 100 µM, the TGI [5] was > 100 µM and the TGI [6] was > 100 µM. For the same molecule, the TGI [49] was > 100 µM, the TGI [7] was > 100 µM and the TGI [8] was > 100 µM. For the same molecule, the TGI [9] was > 100 µM, the TGI [10] was > 100 µM and the TGI [11] was > 100 µM. For the same molecule, the TGI [12] was > 100 µM, the TGI [13] was > 100 µM and the TGI [14] was > 100 µM. The TGI [15] was > 100 µM, the TGI [50] was > 100 µM and the TGI [51] was > 100 µM. The TGI [16] was > 100 µM, the TGI [17] was > 100 µM and the TGI [18] was > 100 µM. For the same molecule, the TGI [52] was > 100 µM, the TGI [53] was > 100 µM and the TGI [19] was > 100 µM. The TGI [20] was > 100 µM, the TGI [22] was > 100 µM and the TGI [23] was > 100 µM. For the same molecule, the TGI [24] was > 100 µM, the TGI [25] was > 100 µM and the TGI [26] was > 100 µM. For the same molecule, the TGI [27] was > 100 µM, the TGI [29] was > 100 µM and the TGI [54] was > 100 µM. For the same molecule, the TGI [30] was > 100 µM, the TGI [55] was > 100 µM and the TGI [31] was > 100 µM. For the same molecule, the TGI [33] was > 100 µM, the TGI [35] was > 100 µM and the TGI [36] was > 100 µM. The TGI [39] was > 100 µM, the TGI [40] was > 100 µM and the TGI [41] was > 100 µM. For the same molecule, the TGI [56] was > 100 µM, the TGI [42] was > 100 µM and the TGI [44] was > 100 µM. For the same molecule, the TGI [57] was > 100 µM and the TGI [46] was > 100 µM.

For `CCCCCCCCCCCOC(=S)NC(C)C`, the TGI [1] was 38.1 µM, the TGI [2] was 34.6 µM and the TGI [47] was 31.8 µM. For the same molecule, the TGI [48] was 36.2 µM, the TGI [3] was 39.7 µM and the TGI [4] was 30.2 µM. It also gave a TGI [5] of 40 µM, a TGI [6] of 31.7 µM and a TGI [49] of 49.6 µM. The TGI [7] was 30.1 µM, the TGI [8] was 39.3 µM and the TGI [9] was 35.4 µM. The TGI [10] was 42.6 µM, the TGI [11] was 50.7 µM and the TGI [12] was 34.4 µM. For the same molecule, the TGI [13] was 52.5 µM, the TGI [14] was 49 µM and the TGI [15] was 78.5 µM. For the same molecule, the TGI [50] was 52 µM, the TGI [51] was 39 µM and the TGI [16] was 30.2 µM. It also gave a TGI [17] of 88.5 µM, a TGI [18] of 40.7 µM and a TGI [52] of 49.9 µM. For the same molecule, the TGI [19] was 32.2 µM, the TGI [20] was 62.8 µM and the TGI [22] was 42.7 µM. The TGI [23] was 56.6 µM, the TGI [24] was 32.2 µM and the TGI [26] was 31.1 µM. The TGI [27] was 35.9 µM, the TGI [28] was 30.2 µM and the TGI [29] was 86.1 µM. The TGI [54] was 61.4 µM, the TGI [30] was 31.2 µM and the TGI [55] was 46.4 µM. It also gave a TGI [31] of 51.1 µM, a TGI [32] of 44.3 µM and a TGI [33] of 37.7 µM. For the same molecule, the TGI [34] was 30.7 µM, the TGI [35] was 30.9 µM and the TGI [36] was 43.3 µM. It also gave a TGI [37] of 36.6 µM, a TGI [38] of 42.9 µM and a TGI [58] of 31.1 µM. The TGI [39] was 85.4 µM, the TGI [40] was 49.5 µM and the TGI [41] was 58.6 µM. The TGI [56] was 33.2 µM, the TGI [42] was 39.1 µM and the TGI [43] was > 100 µM. The TGI [44] was 36.1 µM, the TGI [57] was 31.3 µM and the TGI [45] was 39.9 µM. It also gave a TGI [46] of 60.6 µM.

`CC1=C(C(=O)NCc2ccccc2)C(c2ccc(C3C(C(=O)NCc4ccccc4)=C(C)NC(C)=C3C(=O)NCc3ccccc3)cc2)C(C(=O)NCc2ccccc2)=C(C)N1` was tested, and the TGI [1] was 33.1 µM, the TGI [2] was 20.3 µM and the TGI [47] was 39 µM. The TGI [48] was > 100 µM, the TGI [3] was 10.1 µM and the TGI [4] was 22.7 µM. The TGI [5] was 49.9 µM, the TGI [6] was 20.9 µM and the TGI [7] was 20.5 µM. It also gave a TGI [8] of 28.9 µM, a TGI [9] of 5.52 µM and a TGI [10] of 32.5 µM. For the same molecule, the TGI [11] was > 100 µM, the TGI [12] was 31.7 µM and the TGI [13] was 39.9 µM. For the same molecule, the TGI [14] was 13.1 µM, the TGI [15] was 27.1 µM and the TGI [50] was 31.3 µM. For the same molecule, the TGI [51] was 31.7 µM, the TGI [16] was 14.4 µM and the TGI [17] was 52.7 µM. It also gave a TGI [18] of 38.2 µM, a TGI [52] of 37.8 µM and a TGI [53] of 22.9 µM. For the same molecule, the TGI [19] was 32.9 µM, the TGI [21] was 33.7 µM and the TGI [22] was 81.7 µM. It also gave a TGI [23] of 25.2 µM, a TGI [24] of 35.7 µM and a TGI [25] of 21.3 µM. The TGI [26] was 35.3 µM, the TGI [27] was 29.6 µM and the TGI [28] was 29 µM. The TGI [29] was 37.8 µM, the TGI [54] was > 100 µM and the TGI [30] was 30.9 µM. For the same molecule, the TGI [55] was > 100 µM, the TGI [31] was 61.3 µM and the TGI [32] was 20.7 µM. For the same molecule, the TGI [33] was 24.4 µM, the TGI [35] was 31.1 µM and the TGI [36] was 28.9 µM. It also gave a TGI [37] of 41.1 µM, a TGI [38] of 33.4 µM and a TGI [58] of 22.2 µM. It also gave a TGI [39] of 15.5 µM, a TGI [40] of 36.3 µM and a TGI [41] of 21.3 µM. The TGI [56] was > 100 µM, the TGI [42] was 44.7 µM and the TGI [43] was 29.2 µM. The TGI [44] was 25.9 µM, the TGI [57] was 10.2 µM and the TGI [45] was 34.9 µM. The TGI [46] was 24.1 µM.

— PubChem BioAssay (NCI)
